Data on one compound can be found in ChEMBL document CHEMBL5046244, “Targeted Covalent Inhibition of Small CTD Phosphatase 1 to Promote the Degradation of the REST Transcription Factor in Human Cells” (J Med Chem, 2022).

Assay [1] addresses T1, Tyrosine-protein phosphatase non-receptor type 1 (Homo sapiens) (UniProt P18031).
T1 sequence (whole entry): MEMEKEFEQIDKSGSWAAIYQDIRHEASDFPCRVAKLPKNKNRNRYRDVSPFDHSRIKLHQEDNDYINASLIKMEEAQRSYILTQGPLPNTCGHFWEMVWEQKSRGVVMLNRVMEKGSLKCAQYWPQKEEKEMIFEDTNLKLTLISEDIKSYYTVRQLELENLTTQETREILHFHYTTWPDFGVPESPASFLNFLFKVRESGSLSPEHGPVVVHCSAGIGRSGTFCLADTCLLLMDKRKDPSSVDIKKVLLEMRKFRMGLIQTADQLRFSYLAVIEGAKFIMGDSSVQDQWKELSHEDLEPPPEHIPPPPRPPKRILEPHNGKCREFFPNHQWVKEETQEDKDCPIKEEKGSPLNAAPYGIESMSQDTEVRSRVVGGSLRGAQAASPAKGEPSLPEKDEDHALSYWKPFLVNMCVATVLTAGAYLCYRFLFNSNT
Put plainly: Inhibition of human PTP1B (1 to 321 residues) expressed in Escherichia coli BL21 (DE3) using pNPP as substrate at up to 200 uM preincubated for 4 hrs followed by substrate addition by absorption based analysis. As to conditions: dose microM <=200, time 4.0 hrs.

Another assay concerns HEK293. As to the kind of experiment: Recovery of REST protein expression in HEK293 cells at 10 uM incubated for 2 days with media replenishment for every 24 hrs followed by compound washout and measured after 12 hrs by immunoblot analysis relative to control. Format: functional, Homo sapiens. Conditions: time 2 day.
Assay [2] can be described thus: Upregulation of USP37 mRNA expression in HEK293 cells assessed as fold increase by qRT-PCR analysis. Format: functional, Homo sapiens. A general note: Real-time PCR tracks product formation cycle by cycle.
The species entered for a further assay is Homo sapiens. Put plainly: Covalent inhibition of human SCP1 C92S mutant using pNPP as substrate preincubated for 0.5 to 8 hrs followed by substrate addition by absorbance based analysis. Conditions: time 0.5-8 hrs.
A short description of assay [3]: Upregulation of ELAVL1 mRNA expression in HEK293 cells assessed as fold increase by qRT-PCR analysis. Format: functional, Homo sapiens.

The structures appear in SMILES notation. The source made the active and inactive calls. The rule behind the calls is not given here.

In the case of `O=C(NCCCNS(=O)(=O)c1ccc(OC(F)(F)F)cc1)C1=Cc2ccccc2S1(=O)=O`, the inhibition entry (in assay [1]; in the assay listed under Homo sapiens) was “inactive” in each case. Besides, the Activity with HEK293 is 24%. Also, the “fold change (FC)” value in assay [2] and in assay [3] was 2 in each case.
